According to publication PMC3951324, “Side Chain Hydrophobicity Modulates Therapeutic Activity and Membrane Selectivity of Antimicrobial Peptide Mastoparan-X” (PLoS ONE, 2014):
Ends that are not written are not given here.

Key:
[1] = Pyrene-cmc assay (micelle/aggregate formation); format: physicochemical
Protocol: Fluorescence excitation spectra were collected using an Olis modernized SLM8000 fluorescence spectrophotometer equipped with single-grating emission and double-grating excitation monochromator. The fluorometer was equipped with photon counter detectors. Pyrene was used to probe micellation as it is sensitive to environment hydrophobicity. Peptides were incubated in concentrations of 0.1–1000 µM in 10 mM HEPES, 100 mM sodium chloride, pH 7.4 buffer containing 75 nM pyrene. Samples were incubated for 2 h at 60°C followed by incubation overnight at room temperature and kept in the dark until measured. Measurements were carried out at 37°C. Excitation spectra were collected using emission wavelength 390 nm and 16 nm emission slit sizes. Excitation spectra were scanned in range 310–350 nm with excitation slits sizes of 0.5 nm. The excitation spectrum shift denotes the formation of micelles/aggregates (hydrophobic cavity), which is gauged by intensity ratio R = I339/I333 [29],[30]. The plot of R versus the detergent/peptide concentration, c, measures the partitioning of pyrene into the formed micelles/aggregates. The intensity ratio is fitted using the sigmoidal function [drawing 1] , where R0 and ΔR denote the initial and change in intensity ratio, respectively. α and ci denote the normalized slope and peptide concentration at which curve inflection occurs, respectively. […]

[2] = Mode of peptide-membrane interaction gauged by ITC; format: physicochemical; conditions: 20 mM POPC∶POPG (3∶1) LUVs (8 mM for OAMPX) injected 38×1 µL into 100 µM peptide, 37°C, triplicates
Protocol: Lipid stock solutions of POPC and POPG were prepared in chloroform∶methanol (9∶1). Mixtures of POPC∶POPG (3∶1) were prepared and the organic solvent was evaporated under a gentle stream of nitrogen. The lipid films were kept in vacuum (P<0.1 Pa) overnight in order to remove the residual solvent. Buffer containing 10 mM HEPES and 100 mM sodium chloride (pH 7.4) was added to the lipid films, and they were hydrated for 60 min followed by extrusion through 100 nm using an Avanti mini-extruder. Dynamic Light Scattering (DLS, Brookhaven Instrument Corporation, ZetaPALS) was used for measuring the liposome size distribution. The effective lipid concentration was determined by inductively coupled plasma atomic emission spectroscopy (ICP-AES Vista AX, Varian).
The nature of the peptides' membrane interaction was studied as a function of lipid/peptide ratio (L/P) by ITC (iTC200, Microcal). All experiments were conducted by injection of 20 mM LUVs into 100 µM peptide solution. For OAMPX, 8 mM LUVs were used. The experiments were conducted as 38×1 µL injections, T = 37°C, and the speed of the stirrer was 1000 rpms. All titrations were conducted in triplicates.

[3] = tested on: human red blood cells (RBCs); experiment: Haemolysis assay; format: cell-based
Source text: All Fmoc (9H-fluoren-9-yl-methyloxycarbonyl) L-amino acids and HATU (1-[Bis(dimethylamino)methylene]-1H-1,2,3-triazolo[4,5-b]pyridinium 3-oxid hexafluorophosphate, N-[(Dimethylamino)-1H-1,2,3-triazolo-[4,5-b]pyridin-1-ylmethylene]-N-methylmethanaminium hexafluorophosphate N-oxide) were purchased from GLS China (GL Biochem, Shanghai, China). Fmoc-2-amino-decanoic acid was obtained from Watanabe Chemical Industries, Ltd (Hiroshima, Japan). Lys and Trp were side-chain-protected as tert-butoxycarbonyl, Asn was sidechain protected with trityl. Tentagel resin was purchased from NovaBiochem (Merck, Darmstadt, Germany). TFA (trifluoroacetic acid), TIS (triisopropylsilane), HEPES (N-(2-hydroxyethyl)piperazine-N-(2-ethanesulfonic acid)), 2,4,6-collidine and pyrene were purchased from Sigma-Aldrich (Brøndby, Denmark). Pyridine, sodium hydroxide pellets and sodium chloride was purchased from J.T. Baker Chemicals (Phillipsburg, NJ, USA). Filter supports and Hamilton extrusion syringes, POPG (1-palmitoyl-2-oleoyl-sn-glycero-3-[phospho-rac-(1-glycerol)] sodium salt), and POPC (1-palmitoyl-2-oleoyl-sn-glycero-3-phosphocholine) were purchased from Avanti Polar Lipids (Alabaster, AL). All compounds were used without further purification. Membrane filters for extrusion (100 nm pore size, polycarbonate) were purchased from Whatman (Maidstone, UK). Cuvettes (4×10 mm, quartz, Suprasil) were purchased from Hellma (Müllheim, Germany). Purified human erythrocytes for the haemolysis studies were provided by Bioneer (Hørsholm, Denmark), and were stored at 4°C for a maximum of three days before use.
The assay was conducted as described in Etzerodt et al..

[4] = tested on: Escherichia coli, strain INV-α; experiment: Determination of minimal inhibitory concentration (MIC); format: cell-based; conditions: LB medium, 37°C, 20 h, shaking, peptide 0.05–50 µM, absorbance 570 nm, triplicates
Protocol: (§1) A stock dilution series with ten points, ranging from 1 µM to 1 mM, was prepared in sterile PBS from freshly dissolved peptides. The dilution series was dispensed in triplicates in 96-deepwell microtiter plates (VWR Denmark, Herlev, Denmark), with 15 µl in each well. Multidispensing with electronic pipettes (Biohit, Tåstrup, Denmark) was used throughout. Lactococcus lactis, strain MG1363 (ATCC, LGC Standards AB, Boras, Sweden) and Escherichia coli, strain INV-α (Invitrogen, Nærum, Denmark) were grown in M9 (Sigma Aldrich, Brøndby, Denmark) and LB medium (Difco, BD Biosciences, Brøndby Denmark), respectively. A single colony was grown overnight at 30°C and 37°C for L.lactis and E.coli respectively. The next day, a fresh culture was started with a twenty-fold dilution of the cells and grown for exactly 60 min (optical density was approximately 0.4 at 570 nm). The cell culture was diluted (300 fold for L.lactis and 1000 fold for E.coli) before adding 150 µl to microtiter plates already containing 15 µl peptide solution and 135 µl fresh medium. […] Plates with L.lactis were sealed with lid and parafilm, and plates with E.coli were sealed with a gas-permeable tape (VWR Denmark, Herlev, Denmark). The plates were incubated at the respective temperatures for 20 hours with shaking (150 rpm). For each measurement, 100 µl of the cell culture was transferred to clear, flat-bottomed microtiter plates, and the absorbance at 570 nm was determined using a Victor3 plate reader (Perkin Elmer, Skovlunde, Denmark). The measurement was conducted in triplicates.

[5] = tested on: Lactococcus lactis, strain MG1363; experiment: as above; format: cell-based; conditions: strain MG1363, M9 medium, 30°C, 20 h, shaking; peptide 0.05–50 µM; absorbance 570 nm; triplicates
Protocol: as §1

[6] = obtained via tryptophan fluorescence measurements; cited from earlier work

INWKGIAAMAKKLL-NH2 [MPX, mastoparan X, reference compound]
Critical micelle concentration (cmc) ([1]; pyrene (75 nM) fluorescence excitation shift I339/I333, 10 mM HEPES, 100 mM NaCl, pH 7.4, peptide 0.1–1000 µM, 2 h 60°C then overnight RT, measured at 37°C, cmc = onset of sigmoid, triplicates): >1000 µM
cmc ([1]; pyrene assay, no shift in pyrene excitation spectrum in covered concentration range, pH 7.4, 37°C): > 1 mM
endpoint of the reversible (secondary) process, lipid/peptide ratio L/P [2]: ~21
% haemolysis ([3]; human RBCs, 50 µM peptide): 15%
H5, concentration at which 5% haemolysis has been obtained ([3]; purified human erythrocytes, assay as in Etzerodt et al. [14]): 18 ± 2 µM
MIC (E. coli) [4]: 8 ± 3 µM
MIC (L. lactis) [5]: 2.5 ± 0.5 µM
effective charge (previous result) [6]: 1.7
